Measurements reported in patent publication US5965539A, “Inhibitors of prenyl transferases” (Univeristy of Pittsburgh, priority 1996, dated 1999).
Where two headings read alike, the source gives them in different places.

Experiments:
FTase = molecular target: T1, FTase (Homo sapiens, UniProt P49356); assay: FTase activity assay: transfer of [3H]farnesyl from FPP to recombinant H-Ras-CVLS, Daudi 60,000xg supernatant; type: biochemical; conditions: Table 1
T1 construct: FTase and GGTase I activities from 60,000×g supernatants of human Burkitt lymphoma (Daudi) cells; endogenous in cells; host or cells: human Burkitt lymphoma (Daudi) cells, 60,000xg supernatant (partially purified)
T1 sequence (P49356 whole entry): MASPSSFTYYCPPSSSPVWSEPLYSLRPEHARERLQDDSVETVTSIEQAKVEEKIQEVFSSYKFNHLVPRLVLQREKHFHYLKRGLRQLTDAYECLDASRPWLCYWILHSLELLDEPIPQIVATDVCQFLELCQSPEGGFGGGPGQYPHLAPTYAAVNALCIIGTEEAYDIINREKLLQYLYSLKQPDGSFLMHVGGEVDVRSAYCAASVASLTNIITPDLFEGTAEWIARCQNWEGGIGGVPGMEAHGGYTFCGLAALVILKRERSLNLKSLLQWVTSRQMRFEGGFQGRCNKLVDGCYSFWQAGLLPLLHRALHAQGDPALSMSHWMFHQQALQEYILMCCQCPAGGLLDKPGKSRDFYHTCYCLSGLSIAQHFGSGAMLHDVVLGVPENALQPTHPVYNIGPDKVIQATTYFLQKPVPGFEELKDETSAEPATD

H-Ras processing = assay: Ras processing assay in H-RasF cells (NIH 3T3 transformed with oncogenic H-Ras-CVLS), immunoblot; type: cell-based; conditions: for IC50: whole cells
Experimental: (§1) H-RasF cells (45) were seeded on day 0 in 100 mm Dishes (costar) in Dulbecco's modified Eagles medium (GIBCO) and allowed to grow to 40-60% confluency. […] On day 3, cells were washed one time with ice cold PBS and were collected and lysed by incubation for 30-60 min on ice in lysis buffer (41). Lysates were cleared (14,000 rpm, 4° C., 15 min) and supernatants collected. Equal amounts of lysate were separated on a 12.5% SDS-PAGE, transfered to nitrocellulose, and a western blot performed using a anti-Ras antibody (Y13-238, ATCC) or anti-Rap1A antibody (Santa Cruz Biotechnology, Santa Cruz, Calif.). Antibody reactions were visualized using peroxidase-conjugated goat anti-rat IgG for Y13-238 and peroxidase-conjugated goat anti-rabbit IgG for Rap1A and an enhanced chemiluminescence detection system (ECL; Amersham Corp.)
H-Ras cells (45) and K-Ras4B Cells (32) were kind gifts from Dr. Channing Der and Dr. Adrienne Cox (University of North Carolina, Chapel Hill). Means of obtaining these cell lines will be easily recognized by the skilled practitioner. Cells were seeded on day 0 in 100 mm dishes in Dulbecco's modified Eagles medium supplemented with 10% calf serum and 1% penicillin-streptomycin. […] On day 3, cells were washed and lysed in lysis buffer containing 50 mM HEPES, pH 7.5, 10 mM NaCl, 1% TX-100, 10% glycerol, 5 mM MgCl2, 1 mM EGTA, 25 μg/ml leupeptin, 2 mM PMSF, 2 mM Na3 VO4, 1 mg/ml soybean trypsin inhibitor, 10 μg/ml aprotinin, 6.4 mg/ml Sigma-104® phosphatase substrate. Lysates were cleared (14,000 rpm, 4° C., 15 min) and equal amounts of protein were separated on a 12.5% SDS-PAGE, transferred to nitrocellulose, and immunoblotted using an anti-Ras antibody (Y13-259, ATCC) or an anti-RapIA antibody (SC-65, Santa Cruz Biotechnology, Santa Cruz, Calif.). Antibody reactions were visualized using either peroxidase-conjugated goat anti-rat 1 gG (for Y13-259), or peroxidase-conjugated goat anti-rabbit 1 gG (for Rap1A) and an enhanced chemiluminescence detection (ECL, Amersham Corp.), as described previously (41).

RasGG processing = conditions: 5 μM, FIG. 2B
Experimental: as §1

[1] = tested on: endogenous Ras processing; conditions: 5 μM, pZIPneo and Raf cells
Experimental: as §1

[2] = tested on: oncogenic H-Ras activation of MAPK; assay: Oncogenic H-Ras activation of MAP kinase, immunoblot; type: cell-based; conditions: H-RasF cells
From the text: (§2) Equal amounts of protein were separated on a 15% SDS-PAGE, transferred to nitrocellulose, and immunoblotted using an anti-MAP kinase antibody (erk2, monoclonal, UB1, Lake Placid, N.Y.). Antibody reactions were visualized using peroxidase-conjugated donkey anti-mouse IgG (Jackson ImmunoResearch Laboratories Inc., West Grove, Pa.) and an enhanced chemiluminescence detection system (ECL, Amersham Corp.)

[3] = tested on: oncogenic K-Ras4B activation of MAP kinase; assay: Oncogenic K-Ras4B activation of MAP kinase, immunoblot; type: cell-based; conditions: 0-30 μM tested
From the text: as §2

[4] = tested on: H-RasF transformed NIH 3T3 cells; conditions: 50 mg/kg once daily
Experimental: A. Antitumor efficacy was carried out as described in FIG. 3 except that animals were randomly assigned to four groups each of 4 mice each (2 tumors per mouse). […] B. Ras processing was carried out 5 hours after the last treatement on day 17. Tumors were extracted from the animals, tissumized, and lysed in lysis buffer as described in FIG. 1. Lysates (25 μg) were electrophoresed on a 12.5% SDS-PAGE and immunoblotted with anti-Ras antibody Y13-238 as described previously. The blots were then reprobed with anti-Rap1A antibody (Santa Cruze Biotechnologies, Santa Cruz, Calif.).
The tumor sizes at the end of 17 days were 2490 mm^3 for saline, 1793 mm^3 for 10 mg/kg, 1226 mm^3 for 50 mg/kg and 624 mm^3 for 100 mg/kg treated animals. […] Tumors from control animals contained only fully processed Ras which migrates faster in SDS-PAGE gels (FIG. 11B). […] Thus, the extent of tumor growth inhibition correlated with the extent of inhibition of Ras processing.

Ras/Raf complexes = conditions: 5 μM, H-RasF cells
Experimental: Cells were seeded on day 0 in 100 mm dishes in 10 ml Dulbecco's Modified Eagles Medium (GIBCO) supplemented with 10% calf serum (Hyclone) and 1% pen/strep (GIBCO). […] On day 3, cells were collected by centrifugation in ice cold PBS. Cell pellets were then resuspended in ice cold hypotonic buffer (10 mM Tris, pH 7.5, 5 mM MgCl2, 1 mM DTT, 1 mM PMSF) and cells were sonicated to break up cell pellet to promote separation of cytosol and membrane. The cell suspension was then centrifuged at 2,000 rpm for 10 min to clear debris after which the supernatant was loaded in ultrocentrifuge tubes and spun for 30 min at 100,000×g to SW Ti55 Rotor to separate membrane and cytosol fractions. The cytosol and membrane fractions were lysed on ice for 60 min in buffer containing 30 mM HEPES, pH 7.5, 1% TX-100, 10% glycerol, 10 mM NaCl, 5 mM MgCl2, 2 mM Na3 VO4, 25 mM NaF, 1 mM EGTA, 10 μM soybean trypsin inhibitor, 25 μg/ml leupeptin, 10 μg/ml aprotinin, 2 mM PMSF). The lysates were clarified by centrifugation. Equal amounts of cytosol and membrane fractions were immunoprecipitated using 50 μl of a 25% Protein-A Sepharose Cl-4B suspension (Sigma) with 1 μf/ml anti-c-Raf-1 (SC133, Santa Cruz Biotechnology, Santa Cruz, Calif.). The samples were tumbled at 4° C. for 60 min and then washed 5 times in 50 mM HEPES, pH 7.5, 100 mM NaCl, 5 mM MgCl2, 0.1% TX-100, 10% glycerol, 20 mM NaF. […]

[5] = tested on: oncogenic Raf activation of MAPK; conditions: 5 μM, FIG. 5B
[6] = tested on: Raf-transformed NIH 3T3 cells; conditions: 50 mg/kg once daily

COC(=O)[C@H](CCSC)NC(=O)c1ccc(NC[C@@H](N)CS)cc1-c1ccccc1 [FTI-277, 4-N-[2(R)-Amino-3-mercaptopropyl]amino-2-phenylbenzoyl methionine methyl ester]
GG/F (FTase; ratio GGTase I IC50 / FTase IC50): 32 | IC50 (FTase; read-out: FTase IC50): 50 nM | processing of RasF (H-Ras processing; 5 μM, FIG. 2B): completely blocked | concentration at which Ras processing was blocked (H-Ras processing; H-RasF cells): 1 µM | IC50 (H-Ras processing; Table 5, read-out: In Vivo Processing IC50 H-Ras): 100 nM | IC50 (H-Ras processing; read-out: H-Ras processing IC50): 100 nM | processing of RasGG (RasGG processing): not affected | processing of endogenous Ras [1]: blocked | lowest effective concentration, inhibition of oncogenic Ras activation of MAPK [2]: 300 nM | lowest concentration inhibiting K-Ras4B MAP kinase activation [3]: 30 µM | tumor growth of H-RasF transformed NIH 3T3 cells [4]: inhibited tumor growth | Ras/Raf association in membrane and cytosolic fractions (Ras/Raf complexes): accumulation of Ras/Raf complexes in the cytosolic but not membrane fractions | block of oncogenic Raf activation of MAPK [5]: not blocked | growth of Raf-transformed NIH 3T3 cells [6]: had no effect
